Assay results reported in US20240342106A1, “NANOPARTICLES AND USES THEREOF FOR TREATMENT OF HUMAN IMMUNODEFICIENCY VIRUS” (UNIVERSITY OF MIAMI, priority 2021, published 2024).

What was measured:
microglia cells [1] = assay: ROS production assay (DCFDA) in microglia cells; format: cell-based, Human; details: 1 μM of free ARVs or NPs with respect to the loaded drug, 24 h
Description: ROS Production Assay in Microglia Cells: The ROS generation in the microglia cells were determined using DCFDA assay. Microglia cells were plated in the white wall coated 96-well plate with density of 20,000 cells per well and grown for 16 h. The SQV, EFV, DRV, DTG, EVG and their nanoformulations were added to the cells at concentration of 1 μM with respect to the ARTs for 24 h. After 24 h, the media was collected and used to determine IL-1β, an inflammation maker using commercially available kit. The DCFDA solution was made in media at the concentration of 100 μM. 100 μL of this solution was added to each well and cells were incubated for 30 min. […] The obtained values were normalized using BCA assay.

microglia cells [2] = assay: Seahorse MitoStress assay; details: 500 μM, 24 h

Structure (SMILES)	ROS generation (microglia cells [1])	ATP production (microglia cells [2])	basal respiration (microglia cells [2])	maximal respiration (microglia cells [2])
CC(C)CN(C[C@@H](O)[C@H](Cc1ccccc1)NC(=O)O[C@H]1CO[C@H]2OCC[C@H]21)S(=O)(=O)c1ccc(N)cc1 [Darunavir]	increased ROS significantly	–	–	–
C[C@@H]1CCO[C@H]2Cn3cc(C(=O)NCc4ccc(F)cc4F)c(=O)c(O)c3C(=O)N12 [Dolutegravir]	increased ROS significantly	–	–	–
O=C1Nc2ccc(Cl)cc2[C@@](C#CC2CC2)(C(F)(F)F)O1 [Efavirenz]	increased ROS significantly	–	–	–
COc1cc2c(cc1Cc1cccc(Cl)c1F)c(=O)c(C(=O)O)cn2[C@H](CO)C(C)C [Elvitegravir]	increased ROS significantly	–	–	–
COC(=O)[C@H]1[C@@H](OC(=O)c2ccccc2)C[C@@H]2CC[C@H]1N2C [cocaine]	–	substantially decreased	substantially decreased	substantially decreased
CN[C@@H](C)Cc1ccccc1 [meth, methamphetamine]	–	substantially decreased	substantially decreased	substantially decreased
